In ChEMBL document CHEMBL5537197, “Discovery of Novel Coumarin-quinolinium Derivatives as Pan-KRAS Translation Inhibitors by Targeting 5'-UTR RNA G-Quadruplexes” (J Med Chem, 2024):
Active and inactive are the calls of the source. No cut-off for these calls is given here.

Legend:
MIA PaCa-2 = assay: Cytotoxicity against human MIA PaCa-2 cells harboring KRAS G12C mutant assessed as cell growth inhibition incubated for 24 hrs by MTT assay; assay type: functional, cell-based; settings: MIA PaCa-2, 24 h
PANC-1 = assay: Cytotoxicity against human PANC-1 cells harboring KRAS G12D mutant assessed as cell growth inhibition incubated for 24 hrs by MTT assay; assay type: functional, cell-based; settings: PANC-1, 24 h
[1] = Cytotoxicity against human PANC-1 cells […] assessed as cell growth inhibition incubated for 24 hrs by MTT assay; assay type: functional, cell-based; settings: PANC-1, 24 h
NCM460 = assay: Cytotoxicity against human NCM460 cells harboring wild-type KRAS assessed as cell growth inhibition incubated for 24 hrs by MTT assay; assay type: functional, cell-based; settings: NCM460, 24 h
[2] = target: GTPase KRas (Homo sapiens) (UniProt P01116); assay: Inhibition of KRAS in human MIA PaCa-2 cells at 2.5 uM incubated for 24 hrs by Western blot analysis; assay type: cell-based
[3] = target: GTPase KRas (Homo sapiens) (UniProt P01116); assay: Inhibition of KRAS in human PANC-1 cells at 2.5 uM incubated for 24 hrs by Western blot analysis; assay type: cell-based

GTPase KRas (Homo sapiens), sequence (P01116 whole entry, looked up): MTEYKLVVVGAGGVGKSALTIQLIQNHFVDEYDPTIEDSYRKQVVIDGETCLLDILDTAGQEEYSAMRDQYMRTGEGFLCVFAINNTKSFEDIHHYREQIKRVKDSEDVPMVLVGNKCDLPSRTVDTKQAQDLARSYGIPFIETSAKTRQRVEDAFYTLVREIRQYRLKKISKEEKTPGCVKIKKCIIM

| inhibition [2] | inhibition [3] | Compound | IC50 (MIA PaCa-2) | IC50 (PANC-1) | IC50 [1] | IC50 (NCM460) |
| --- | --- | --- | --- | --- | --- | --- |
| – | – | CCN(CC)c1ccc2cc(/C=C/c3ccc4cc(F)c(N5CCN(Cc6cn(CCC(=O)O)nn6)CC5)cc4[n+]3C)c(=O)oc2c1 | 12.6 µM | > 40 µM | > 40 µM | > 40 µM |
| Active | Active | CCN(CC)c1ccc2cc(/C=C/c3cc(N4CCCN(C)CC4)c4cc(F)c(N5CCCN(C)CC5)cc4[n+]3C)c(=O)oc2c1 | 10 µM | 11.5 µM | > 40 µM | > 40 µM |
| – | – | CCN(CC)c1ccc2cc(/C=C/c3cc(N4CCN(C)CC4)c4cc(F)c(NCc5cn([C@@H]6O[C@H](CO)[C@@H](O)[C@H](O)[C@H]6O)nn5)cc4[n+]3C)c(=O)oc2c1 | > 40 µM | > 40 µM | > 40 µM | > 40 µM |
| – | – | CCN(CC)c1ccc2cc(/C=C/c3ccc4cc(F)c(N5CCN(Cc6cn(CCCN7CCCC7)nn6)CC5)cc4[n+]3C)c(=O)oc2c1 | > 40 µM | 19.8 µM | 13 µM | > 40 µM |
| – | – | CCN(CC)c1ccc2cc(/C=C/c3cc(NCCCN4CCOCC4)c4cc(F)c(NCCCN5CCOCC5)cc4[n+]3C)c(=O)oc2c1 | 4.6 µM | 29 µM | > 40 µM | > 40 µM |
| – | – | CCN1CCN(c2ccc(Nc3cc4c(ccc(/C=C/c5cc6ccc(N(CC)CC)cc6oc5=O)[n+]4C)cc3F)cc2)CC1 | 8.8 µM | 15.2 µM | > 40 µM | > 40 µM |
| – | – | CCN(CC)c1ccc2cc(/C=C/c3ccc4cc(F)c(N5CCCCC5)cc4[n+]3C)c(=O)oc2c1 | 11.4 µM | 20.6 µM | > 40 µM | > 40 µM |
| – | – | CCN(CC)c1ccc2cc(/C=C/c3cc(NCCN4CCCC4)c4cc(F)c(NCCN5CCCC5)cc4[n+]3C)c(=O)oc2c1 | 17 µM | > 40 µM | > 40 µM | > 40 µM |
| – | – | CCN(CC)c1ccc2cc(/C=C/c3ccc4cc(F)c(NCCO)cc4[n+]3C)c(=O)oc2c1 | 7.2 µM | 38.2 µM | > 40 µM | > 40 µM |
| – | – | CCN(CC)c1ccc2cc(/C=C/c3cc(N4CCN(C)CC4)c4cc(F)c(NCc5cn(CCCN6CCCCC6)nn5)cc4[n+]3C)c(=O)oc2c1 | > 40 µM | > 40 µM | > 40 µM | > 40 µM |
| – | – | CCN(CC)c1ccc(Nc2cc3c(ccc(/C=C/c4cc5ccc(N(CC)CC)cc5oc4=O)[n+]3C)cc2F)cc1 | < 13 µM | < 1.3 µM | < 1.3 µM | < 1.3 µM |
| – | – | CCN(CC)c1ccc2cc(/C=C/c3ccc4cc(F)c(N5CCN(Cc6cn(CCCN7CCCCC7)nn6)CC5)cc4[n+]3C)c(=O)oc2c1 | 26.8 µM | > 40 µM | > 40 µM | > 40 µM |
| – | – | CCN(CC)c1ccc2cc(/C=C/c3ccc4cc(F)c(NCc5ccccc5C)cc4[n+]3C)c(=O)oc2c1 | < 1.3 µM | 5.9 µM | 4.6 µM | 18.7 µM |
| Active | Active | CCN(CC)c1ccc2cc(/C=C/c3ccc4cc(F)c(NCCCN5CCOCC5)cc4[n+]3C)c(=O)oc2c1 | 4.2 µM | 6 µM | > 40 µM | > 40 µM |
| – | – | CCN(CC)c1ccc2cc(/C=C/c3ccc4cc(F)c(NCCCOC(C)C)cc4[n+]3C)c(=O)oc2c1 | 1.5 µM | 2.9 µM | 6 µM | 23.2 µM |
| – | – | CCN(CC)c1ccc2cc(/C=C/c3ccc4cc(F)c(NCCCn5ccnc5)cc4[n+]3C)c(=O)oc2c1 | 13.4 µM | > 40 µM | > 40 µM | > 40 µM |
| – | – | CCN(CC)c1ccc2cc(/C=C/c3ccc4cc(F)c(N5CCN(Cc6cn(CCCN7CCOCC7)nn6)CC5)cc4[n+]3C)c(=O)oc2c1 | 23.4 µM | > 40 µM | > 40 µM | > 40 µM |
| – | – | CCN(CC)c1ccc2cc(/C=C/c3cc(N4CCN(C)CC4)c4cc(F)c(NCc5cn(CCc6cccs6)nn5)cc4[n+]3C)c(=O)oc2c1 | 9 µM | 19.2 µM | > 40 µM | > 40 µM |
| – | – | CCN(CC)c1ccc2cc(/C=C/c3ccc4cc(F)c(NCCOCCO)cc4[n+]3C)c(=O)oc2c1 | 9.8 µM | > 40 µM | > 40 µM | > 40 µM |
| – | – | CCN(CC)c1ccc2cc(/C=C/c3cc(N4CCN(C)CC4)c4cc(F)c(NCc5cn(CCCN6CCCC6)nn5)cc4[n+]3C)c(=O)oc2c1 | > 40 µM | > 40 µM | > 40 µM | > 40 µM |
| – | – | CCN(CC)c1ccc2cc(/C=C/c3ccc4cc(F)c(N5CCOCC5)cc4[n+]3C)c(=O)oc2c1 | 29.6 µM | 13.2 µM | > 40 µM | > 40 µM |
| – | – | CCN(CC)c1ccc2cc(/C=C/c3ccc4cc(F)c(N5CCN(C(=O)C(C)C)CC5)cc4[n+]3C)c(=O)oc2c1 | 3.4 µM | 39.6 µM | > 40 µM | > 40 µM |

| inhibition [2] | inhibition [3] | Compound | IC50 (MIA PaCa-2) | IC50 (PANC-1) | IC50 [1] | IC50 (NCM460) |
| --- | --- | --- | --- | --- | --- | --- |
| – | – | CCN(CC)c1ccc2cc(/C=C/c3cc(N4CCN(C)CC4)c4cc(F)c(NCc5cn(CCC(=O)O)nn5)cc4[n+]3C)c(=O)oc2c1 | > 40 µM | > 40 µM | > 40 µM | > 40 µM |
| – | – | CCN(CC)c1ccc2cc(/C=C/c3ccc4cc(F)c(NCCN(C(C)C)C(C)C)cc4[n+]3C)c(=O)oc2c1 | 1.3 µM | 3.4 µM | 13 µM | 15 µM |
| – | – | CCN(CC)c1ccc2cc(/C=C/c3ccc4cc(F)c(N5CCN(Cc6cn(CCCO)nn6)CC5)cc4[n+]3C)c(=O)oc2c1 | > 40 µM | > 40 µM | > 40 µM | > 40 µM |
| – | – | CCN(CC)c1ccc2cc(/C=C/c3ccc4cc(F)c(N5CCN(Cc6cn([C@@H]7O[C@H](CO)[C@@H](O)[C@H](O)[C@H]7O)nn6)CC5)cc4[n+]3C)c(=O)oc2c1 | > 40 µM | > 40 µM | > 40 µM | > 40 µM |
| – | – | CCN(CC)c1ccc2cc(/C=C/c3ccc4cc(F)c(Nc5ccc(N6CCN(C)CC6)nc5)cc4[n+]3C)c(=O)oc2c1 | 9 µM | > 40 µM | > 40 µM | 10.4 µM |
| – | – | CCN(CC)c1ccc2cc(/C=C/c3cc(NCCCN4CCCC4)c4cc(F)c(NCCCN5CCCC5)cc4[n+]3C)c(=O)oc2c1 | > 40 µM | > 40 µM | > 40 µM | > 40 µM |
| – | – | CCN(CC)c1ccc2cc(/C=C/c3ccc4cc(F)c(N5CCN(Cc6cn(CCc7cccs7)nn6)CC5)cc4[n+]3C)c(=O)oc2c1 | 6.8 µM | 23.8 µM | > 40 µM | > 40 µM |
| – | – | CCN(CC)c1ccc2cc(/C=C/c3cc(N4CCN(C)CC4)c4cc(F)c(NCc5cn(CCC(=O)OC)nn5)cc4[n+]3C)c(=O)oc2c1 | > 40 µM | > 40 µM | > 40 µM | > 40 µM |
| – | – | CCCCN(CCCC)CCCn1cc(CN2CCN(c3cc4c(ccc(/C=C/c5cc6ccc(N(CC)CC)cc6oc5=O)[n+]4C)cc3F)CC2)nn1 | 7 µM | 26 µM | > 40 µM | > 40 µM |
| – | – | CCN(CC)c1ccc2cc(/C=C/c3cc(N4CCN(C)CC4)c4cc(F)c(N5CCN(C)CC5)cc4[n+]3C)c(=O)oc2c1 | 16 µM | 26.4 µM | > 40 µM | > 40 µM |
| – | – | CCN(CC)c1ccc2cc(/C=C/c3cc(N4CCN(C)CC4)c4cc(F)c(NCc5cn(CCCN(C)C)nn5)cc4[n+]3C)c(=O)oc2c1 | > 40 µM | 35.2 µM | > 40 µM | > 40 µM |
| – | – | CCN(CC)c1ccc2cc(/C=C/c3ccc4cc(F)c(NCC5CCOCC5)cc4[n+]3C)c(=O)oc2c1 | 10.8 µM | 32.4 µM | 11.3 µM | > 40 µM |
| – | – | CCN(CC)c1ccc2cc(/C=C/c3cc(NCCCn4ccnc4)c4cc(F)c(NCCCn5ccnc5)cc4[n+]3C)c(=O)oc2c1 | 33.2 µM | > 40 µM | > 40 µM | > 40 µM |
| – | – | CCN(CC)c1ccc2cc(/C=C/c3ccc4cc(F)c(Nc5ccc6nc(C)[nH]c6c5)cc4[n+]3C)c(=O)oc2c1 | 12 µM | 13 µM | > 40 µM | 14.8 µM |
| – | – | CCN(CC)c1ccc2cc(/C=C/c3ccc4cc(F)c(N5CCN(Cc6cn(CCCN(C)C)nn6)CC5)cc4[n+]3C)c(=O)oc2c1 | > 40 µM | > 40 µM | > 40 µM | > 40 µM |
| – | – | CCN(CC)c1ccc2cc(/C=C/c3ccc4cc(F)c(NCCc5cccs5)cc4[n+]3C)c(=O)oc2c1 | < 1.3 µM | < 1.3 µM | < 1.3 µM | 4.4 µM |
| – | – | CCN(CC)CCCn1cc(CNc2cc3c(cc2F)c(N2CCN(C)CC2)cc(/C=C/c2cc4ccc(N(CC)CC)cc4oc2=O)[n+]3C)nn1 | > 40 µM | > 40 µM | > 40 µM | > 40 µM |
| – | – | CCN(CC)CCCn1cc(CN2CCN(c3cc4c(ccc(/C=C/c5cc6ccc(N(CC)CC)cc6oc5=O)[n+]4C)cc3F)CC2)nn1 | > 40 µM | > 40 µM | > 40 µM | > 40 µM |
| – | – | CCN(CC)c1ccc2cc(/C=C/c3ccc4cc(F)c(NCCc5nc6ccccc6[nH]5)cc4[n+]3C)c(=O)oc2c1 | 4 µM | 19.2 µM | > 40 µM | > 40 µM |
| – | – | CCN(CC)c1ccc2cc(/C=C/c3ccc4cc(F)c(NCc5ccccc5C(F)(F)F)cc4[n+]3C)c(=O)oc2c1 | < 1.3 µM | 7 µM | 3 µM | 12.2 µM |
| – | – | CCN(CC)c1ccc2cc(/C=C/c3ccc4cc(F)c(N5CCN(C(C)=O)CC5)cc4[n+]3C)c(=O)oc2c1 | 5.6 µM | 32.6 µM | > 40 µM | > 40 µM |
| – | – | CCN(CC)c1ccc2cc(/C=C/c3cc(N4CCN(C)CC4)c4cc(F)c(NCc5cn(CCCN6CCOCC6)nn5)cc4[n+]3C)c(=O)oc2c1 | > 40 µM | > 40 µM | > 40 µM | > 40 µM |
